Results on six compounds are retold here after US20240034753A1, “THERAPEUTIC PEPTIDES” (COHBAR, INC., priority 2020, published 2024).

Experiment [1] concerns SH-SY5Y Neuroblastoma Cells Exposed to Staurosporine. Briefly: ATP levels in cells exposed to staurosporine (CellTiter-Glo). The class given is cell-based, human. Conditions: peptide 10 μM plus staurosporine (40 μM), 18-20 hours; <100% cytoprotective, >100% synergistic. How it is done:
Peptides were initially prepared as 10 mM stock in DMSO and tested at a final concentration of 10 μM (0.1% DMSO). […] […] CellTiter-Glo® Assay kit was purchased from Promega. SH-SY5Y human neuroblastoma cell line was purchased from American Type Culture Collection (Manassas, VA) and licensed from Memorial Sloan-Kettering Cancer Center (New York, NY). SH-SY5Y cells were grown in DMEM/F12 medium supplemented with 10% FBS with 100 IU/ml penicillin and 100 μg/ml streptomycin. Cultures were maintained at 37° C. in a humidified atmosphere of 5% CO2/95% air. SH-SY5Y cells were seeded at 30,000 cells per well on 96-well plates. […] ATP levels were determined using a CellTiter-Glo Assay kit (Promega) according to the manufacturer's instructions. Luminescence for each sample well on the plate was measured using a Cytation 3 plate reader (BioTek, Winooski, VT). […] A value less than 100% is indicative of a cytoprotective effect, while a value greater than 100% is indicative of a synergistic effect on viability.

In experiment [2] the test system is SH-SY5Y Neuroblastoma Cells. Briefly: ATP levels (CellTiter-Glo). Conditions: peptide 10 μM, 18-20 hours, relative to 0.1% DMSO treated control. It is filed as cell-based, human. How it is done: The effect of the peptides on cellular metabolism can be assessed using an assay of ATP levels in cultured cells such as human neuroblastoma cells. Peptides were initially prepared as 10 mM stock in DMSO and used at a final concentration of 10 μM (0.1% DMSO). […] CellTiter-Glo® Assay kit was purchased from Promega. SH-SY5Y human bone marrow neuroblastoma cell line was purchased from American Type Culture Collection (Manassas, VA) and licensed from Memorial Sloan-Kettering Cancer Center (New York, NY). SH-SY5Y cells were grown in DMEM/F12 medium supplemented with 10% FBS with 100 IU/ml penicillin and 100 μg/ml streptomycin. Cultures were maintained at 37° C. in a humidified atmosphere of 5% CO2/95% air. SH-SY5Y cells were seeded at 30,000 cells per well on 96-well plates. […] ATP levels were determined using a CellTiter-Glo Assay kit (Promega) according to the manufacturer's instructions. Luminescence for each sample well on the plate was measured using a Cytation 3 plate reader (BioTek, Winooski, VT). Activity was calculated relative to 0.1% DMSO treated control. The relative standard deviation of the result for the 0.1% DMSO treated control was <5%.

Experiment [3] relates to A172 human brain glioblastoma cell line. Briefly: Caspase-Glo 3/7 assay of caspase 3/7 activity in cultured cells. It is filed as cell-based. The conditions noted are these: peptide 10 μM, 18-20 hours, relative to 0.1% DMSO control. How it is done:
The effect of the peptides on cell death/survival can be assessed using a […] assay in cultured cells. Peptides were dissolved at 10 mM in DMSO as stock solutions for use at a final concentration of 10 μM. […] Caspase-Glo 3/7 Assay Reagent was purchased from Promega (Madison, WI). A172 human brain glioblastoma cell line was purchased from American Type Culture Collection (Manassas, VA). A172 cells were grown in DMEM supplemented with 10% FBS with 100 IU/ml penicillin and 100 μg/ml streptomycin. Cultures were maintained at 37° C. in a humidified atmosphere of 5% CO2/95% air. A172 cells were seeded at 8,000 cells per well on 96-well plates. […] Caspase 3/7 activity was determined using a Caspase-Glo 3/7 Assay kit (Promega) according to the manufacturer's instructions. Luminescence for each sample well on the plate was measured using a Cytation 3 plate reader (BioTek, Winooski, VT). Activity was calculated relative to 0.1% DMSO control.

The subject of experiment [4] is C2C12 Mouse Myoblasts. Briefly: Glucose utilization (glucose remaining in medium). The class given is cell-based. The conditions noted are these: peptide 10 μM, 18-22 hours, relative to 0.1% DMSO treated control cells. How it is done: The effect of the peptides on glucose metabolism can be assessed using an assay of glucose utilization in cultured cells such as mouse myoblasts. Peptides were initially prepared as 10 mM stock in DMSO and used at a final concentration of 10 μM (0.1% DMSO). C2C12 mouse myoblast cell line was purchased from American Type Culture Collection (Manassas, VA). C2C12 cultures were maintained at 37° C. in a humidified atmosphere of 5% CO2/95% air with medium changes every second day. C2C12 cells were grown in DMEM (1 g/L glucose) supplemented with 10% FBS with 100 IU/ml penicillin and 100 μg/ml streptomycin. C2C12 cells were seeded at 7,000 cells per well on 96-well plates and cultured to confluence. Once the cell reached confluence the media was changed to DMEM (1 g/L glucose) supplemented with 2% HS with 100 IU/ml penicillin and 100 μg/ml streptomycin and maintained at 37° C. in a humidified atmosphere of 5% CO2/95% air. 5 days post-induction of differentiation fresh DMEM (1 g/L glucose) supplemented with 2% HS with 100 IU/ml penicillin and 100 μg/ml streptomycin was added to cultures. Cells were maintained at 37° C. in a humidified atmosphere of 5% CO2 and 95% air for 5 hours. After 5 hours test peptides at 10 μM or controls (0.5 mM or 1 mM metformin in 1% DMSO) prepared in fresh differentiation medium were added to cells and the cultures were maintained at 37° C. in a humidified atmosphere of 5% CO2/95% air for 18-22 hours. At the end of the incubation culture media was removed from the cells and the remaining glucose concentration was measured using a Glucose Assay kit (Abcam) according to the manufacturer's instructions, using a Cytation 3 plate reader at 570 nm (BioTek, Winooski, VT). Glucose concentrations in the medium were calculated relative to 0.1% DMSO treated control cells. The relative standard deviation of the result for the 0.1% DMSO treated control was <20%. Metformin was used as a positive control for reduction of glucose levels (increased glucose utilization glucose levels for treatment with metformin (1 mM) treatment were <20% of the 0.1% DMSO treated control value. The results are reported in Table 11.

Square brackets hold non-standard residues; d marks the D form. Ends that are not written are not given here. Peptide text beside a SMILES is read from it.

Consider `CC[C@H](C)[C@H](NC(=O)[C@@H](NC(=O)[C@H](Cc1c[nH]cn1)NC(=O)[C@H](CCCNC(=N)N)NC(=O)[C@H](CC(=O)O)NC(=O)[C@H](Cc1ccc(O)cc1)NC(=O)[C@H](CC(C)C)NC(=O)[C@H](CC(C)C)NC(=O)[C@@H](NC(=O)[C@@H](N)Cc1c[nH]c2ccccc12)C(C)C)C(C)C)C(=O)NCC(=O)NCC(=O)N[C@@H](CO)C(=O)N[C@@H](CC(C)C)C(=O)N[C@@H](CS)C(=O)N[C@H](C(=O)N[C@H](C(=O)N[C@H](C(=O)N[C@@H](CCC(N)=O)C(=O)N[C@H](C(=O)N[C@@H](CCC(=O)O)C(=O)N[C@H](C)C(=O)N[C@@H](Cc1ccc(O)cc1)C(=O)O)C(C)C)C(C)C)C(C)C)C(C)C` [compound 23] (H-WVLLYDRHVIGGSLCVVVQVE[dA]Y-OH; N-terminus and C-terminus assumed), for which the “Percent of ATP Reduction Induced by Control” value in experiment [1] was 69.6%. The “ATP Levels, % Control” value in experiment [2] amounted to 105.9%. In addition, the “Caspase 3/7 Activity, Percent of Control Activity” value (“Caspase 3/7 Activity, Percent” below) in experiment [3] is on record as 104.3%. In addition, the “Glucose Utilization (glucose concentration in medium), Percent of Untreated Control” value in experiment [4] stood at 109.6%.

Regarding `CC[C@H](C)[C@H](NC(=O)[C@@H](NC(=O)[C@H](Cc1c[nH]cn1)NC(=O)[C@H](CCCNC(=N)N)NC(=O)[C@H](CC(=O)O)NC(=O)[C@H](Cc1ccc(O)cc1)NC(=O)[C@H](CC(C)C)NC(=O)[C@H](CC(C)C)NC(=O)[C@@H](NC(=O)[C@@H](N)Cc1c[nH]c2ccccc12)C(C)C)C(C)C)C(=O)NCC(=O)NCC(=O)N[C@@H](CO)C(=O)N[C@@H](CC(C)C)C(=O)N[C@@H](CS)C(=O)N[C@H](C(=O)N[C@H](C(=O)N[C@H](C(=O)N[C@@H](CCC(N)=O)C(=O)N[C@H](C(=O)N[C@@H](CCC(=O)O)C(=O)N[C@H](C)C(=O)O)C(C)C)C(C)C)C(C)C)C(C)C` [compound 24] (H-WVLLYDRHVIGGSLCVVVQVE[dA]-OH; N-terminus and C-terminus assumed), the “Percent of ATP Reduction Induced by Control” value in experiment [1] was determined as 80.4%. The “ATP Levels, % Control” value in experiment [2] worked out at 98.3%. For the same compound, in experiment [3], the “Caspase 3/7 Activity, Percent” value turned out to be 108.8%. Besides, the “Glucose Utilization (glucose concentration in medium), Percent of Untreated Control” value in experiment [4] was 109.1%.

With `CC[C@H](C)[C@H](NC(=O)[C@@H](NC(=O)[C@H](Cc1c[nH]cn1)NC(=O)[C@H](CCCNC(=N)N)NC(=O)[C@H](CC(=O)O)NC(=O)[C@H](Cc1ccc(O)cc1)NC(=O)[C@H](CC(C)C)NC(=O)[C@H](CC(C)C)NC(=O)[C@@H](NC(=O)[C@@H](N)Cc1c[nH]c2ccccc12)C(C)C)C(C)C)C(=O)NCC(=O)NCC(=O)N[C@@H](CO)C(=O)N[C@@H](CC(C)C)C(=O)N[C@@H](CS)C(=O)N[C@H](C(=O)N[C@@H](CCC(N)=O)C(=O)N[C@H](C(=O)N[C@@H](CCC(N)=O)C(=O)N[C@H](C(=O)N[C@@H](CCC(=O)O)C(=O)N[C@H](C)C(=O)O)C(C)C)C(C)C)C(C)C` [compound 25] (H-WVLLYDRHVIGGSLCVQVQVE[dA]-OH; N-terminus and C-terminus assumed), the “Percent of ATP Reduction Induced by Control” value in experiment [1] was 82.7%. Moreover, the “ATP Levels, % Control” value in experiment [2] is listed as 106.9%. Also, in experiment [3], the “Caspase 3/7 Activity, Percent” value came to 108.8%. Moreover, the “Glucose Utilization (glucose concentration in medium), Percent of Untreated Control” value in experiment [4] is reported as 107.2%.

In the case of GWVLLYDRHVIGGSLCVVVQVEAY [compound 22], in experiment [1], the “Percent of ATP Reduction Induced by Control” value is reported as 73.1%. The “ATP Levels, % Control” value in experiment [2] turned out to be 103.5%. Further, the “Caspase 3/7 Activity, Percent” value in experiment [3] was 105.0%. Besides, the “Glucose Utilization (glucose concentration in medium), Percent of Untreated Control” value in experiment [4] is given as 70.4%.

For MAGVIRGVLVL [compound 8], in experiment [1], the “Percent of ATP Reduction Induced by Control” value turned out to be 92.6%. Further, the “ATP Levels, % Control” value in experiment [2] amounted to 101.1%. Further, in experiment [3], the “Caspase 3/7 Activity, Percent” value is reported as 86.7%. Moreover, the “Glucose Utilization (glucose concentration in medium), Percent of Untreated Control” value in experiment [4] turned out to be 115.0%.

Regarding MLLILTLVLL [compound 2], the “Percent of ATP Reduction Induced by Control” value in experiment [1] turned out to be 91.6%. For the same compound, the “ATP Levels, % Control” value in experiment [2] turned out to be 99.9%. For the same compound, in experiment [3], the “Caspase 3/7 Activity, Percent” value came out at 86.6%. In addition, the “Glucose Utilization (glucose concentration in medium), Percent of Untreated Control” value in experiment [4] came to 113.5%.
